Results taken from BindingDB's records for doi:10.1016/j.bioorg.2015.10.007 (University of Thessaly, 2015).

Assays:
[1] = biological target: T1, Non-secretory ribonuclease (Homo sapiens, UniProt P10153); experiment: Ribonuclease Activity Assay; conditions: 30 °C
T1 sequence (P10153 whole entry): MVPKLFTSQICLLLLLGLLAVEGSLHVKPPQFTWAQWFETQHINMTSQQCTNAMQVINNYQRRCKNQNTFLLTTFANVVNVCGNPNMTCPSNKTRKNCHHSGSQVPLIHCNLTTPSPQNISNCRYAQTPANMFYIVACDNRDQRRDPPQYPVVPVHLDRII
Method: (§1) The Ribonuclease Activity assay used was adapted from the procedure described by Anfinsen et al. and Slifman et al. Determination of ribonuclease activity of RNase A and EDN proceeded as follows: yeast tRNA (Sigma-Aldrich) was solubilized in 50 mM sodium phosphate, pH = 7.4, at a concentration of 60 uM. Various tRNA concentrations were used: 2 uM, 3 uM, 4 uM, 5 uM and 6 uM. The final volume of the reaction was 300 ul. tRNA solutions were incubated at 30 C for 10 min. 10 nM of enzyme final concentration from a 0.6 uM stock solution added to the reactionmixture. The reaction was stopped one minute and five minutes later in the case of RNase A and EDN respectively, by the addition of 300 ul of fresh ice-cold solution of 40 mM lanthanum nitrate, 6% v/v perchloric acid. Stopped reactions were maintained on ice for 15 min, and insoluble tRNA was removed by centrifugation at 4 C for 15 min at 14.500 rpm on a bench centrifuge. The amountof cleaved tRNA was determined from the ultraviolet absorbance at 260 nm (A260) of the supernatant fraction.

[2] = biological target: Ribonuclease pancreatic (Bos taurus, UniProt P61823); experiment: Ribonuclease Activity Assay; conditions: 30 °C
Sequence of Ribonuclease pancreatic (P61823 whole entry): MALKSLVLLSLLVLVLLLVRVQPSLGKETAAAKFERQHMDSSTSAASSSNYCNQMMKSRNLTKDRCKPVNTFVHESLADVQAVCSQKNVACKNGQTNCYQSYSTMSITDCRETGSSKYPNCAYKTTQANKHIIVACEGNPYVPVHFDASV
Method: as §1

| Structure (SMILES) | IC50 [1] [µM] | Ki [1] [µM] | Ki [2] [µM] |
| --- | --- | --- | --- |
| NC1=NC=NC2C1N=CN2[C@@H]1O[C@H](CO)[C@H](n2cc(Cn3ccc(=O)[nH]c3=O)nn2)C1O (stereo partly drawn) [9-[3'-[4-[(Uracil-1-yl)methyl]-1,2,3-triazol-1-yl]-b-D-ribofuranosyl]adenine (12a)] | 652 | 426 | 106 |
| O=c1[nH]c(=O)n([C@@H]2O[C@H](CO)[C@H](O)C2O)cc1F (stereo partly drawn) [1-[(2R,5R)-3,4-dihydroxy-5-(hydroxymethyl)oxolan-2-yl]-5-fluoro-1,2,3,4-tetrahydropyrimidine-2,4-dione (VI)] | 282 | 208 | – |
| Nc1ncnc2c1ncn2Cc1cn([C@@H]2C(O)[C@H](n3cc(F)c(=O)[nH]c3=O)O[C@@H]2CO)nn1 (stereo partly drawn) [1-[3'-[4-[(Adenine-9-yl)methyl]-1,2,3-triazol-1-yl]-b-D-ribofuranosyl]5-fluorouracil (5c)] | – | – | 265 |
| O=c1[nH]c(=O)n([C@@H]2O[C@H](CO)[C@H](O)C2O)cc1Cl (stereo partly drawn) [5-chloro-1-[(2R,5R)-3,4-dihydroxy-5-(hydroxymethyl)oxolan-2-yl]-1,2,3,4-tetrahydropyrimidine-2,4-dione (V)] | 1460 | 1080 | – |
| O=c1[nH]c(=O)n(Cc2cn([C@@H]3O[C@H](CO)[C@H](O)C3O)nn2)cc1Cl (stereo partly drawn) [5-chloro-1-({1-[(2R,5R)-3,4-dihydroxy-5-(hydroxymethyl)oxolan-2-yl]-1H-1,2,3-triazol-4-yl}methyl)-1,2,3,4-tetrahydropyrimidine-2,4-dione (II)] | 535 | 454 | – |
| NC1=NC=NC2C1N=CN2[C@@H]1O[C@H](CO)[C@H](n2cc(Cn3ccc(N)nc3=O)nn2)C1O (stereo partly drawn) [9-[3'-[4-[(Cytosine-1-yl)methyl]-1,2,3-triazol-1-yl]-b-D-ribofuranosyl]adenine (11c)] | 88.6 | 57.8 | 98.5 |
| O=C(Nc1ncnc2c1ncn2[C@@H]1O[C@H](CO)[C@H](n2cc(Cn3ccc(=O)[nH]c3=O)nn2)C1O)c1ccccc1 (stereo partly drawn) [9-[3'-[4-[(Uracil-1-yl)methyl]-1,2,3-triazol-1-yl]-b-D-ribofuranosyl]N6-benzoyladenine (11a)] | 409 | 267 | 55.5 |
| Cc1cn(Cc2cn([C@@H]3C(O)[C@H](n4cnc5c(NC(=O)c6ccccc6)ncnc54)O[C@@H]3CO)nn2)c(=O)[nH]c1=O (stereo partly drawn) [9-[3'-[4-[(Thymine-1-yl)methyl]-1,2,3-triazol-1-yl]-b-D-ribofuranosyl]N6-benzoyladenine (11b)] | 379 | 247 | 150 |
| O=c1ccn(Cc2cn([C@@H]3O[C@H](CO)[C@H](O)C3O)nn2)c(=O)[nH]1 (stereo partly drawn) [1-({1-[(2R,5R)-3,4-dihydroxy-5-(hydroxymethyl)oxolan-2-yl]-1H-1,2,3-triazol-4-yl}methyl)-1,2,3,4-tetrahydropyrimidine-2,4-dione (I)] | 179 | 116 | – |
| Cc1cn(Cc2cn([C@@H]3C(O)[C@H](N4C=NC5C(N)=NC=NC54)O[C@@H]3CO)nn2)c(=O)[nH]c1=O (stereo partly drawn) [9-[3'-[4-[(Thymine-1-yl)methyl]-1,2,3-triazol-1-yl]-b-D-ribofuranosyl]adenine (12b)] | 559 | 365 | 68.8 |
| O=c1[nH]c(=O)n(Cc2cn([C@@H]3O[C@H](CO)[C@H](O)C3O)nn2)cc1F (stereo partly drawn) [1-({1-[(2R,5R)-3,4-dihydroxy-5-(hydroxymethyl)oxolan-2-yl]-1H-1,2,3-triazol-4-yl}methyl)-5-fluoro-1,2,3,4-tetrahydropyrimidine-2,4-dione (III)] | 63.7 | 44.2 | – |
| Cc1cn([C@@H]2O[C@H](CO)[C@H](O)C2O)c(=O)[nH]c1=O (stereo partly drawn) [1-[(2R,5R)-3,4-dihydroxy-5-(hydroxymethyl)oxolan-2-yl]-5-methyl-1,2,3,4-tetrahydropyrimidine-2,4-dione (IV)] | 33.1 | 26.1 | – |
| Nc1ncnc2c1ncn2Cc1cn([C@@H]2C(O)[C@H](n3ccc(=O)[nH]c3=O)O[C@@H]2CO)nn1 (stereo partly drawn) [1-[3'-[4-[(Adenine-9-yl)methyl]-1,2,3-triazol-1-yl]-b-D-ribofuranosyl]uracil (5a)] | – | – | 159 |
